Reference: ChEMBL document CHEMBL1138435, “A novel antibacterial iridoid and triterpene from Caiophora coronata” (2003)
Converted amounts (≈) assume the structure as drawn. The source made the active and inactive calls. No cut-off for these calls is given here.

Experiments:
Candida albicans = assay: Antimicrobial activity against Candida albicans 54 after 18 hrs by agar diffusion method; format: functional
Escherichia coli [1] = assay: Antimicrobial activity against Escherichia coli 389 after 18 hrs by twofold serial microbroth dilution method; format: functional; details: Escherichia coli, 389, 18 h
Bacillus subtilis = assay: Antimicrobial activity against Bacillus subtilis 327 after 18 hrs by twofold serial microbroth dilution method; format: functional; details: Bacillus subtilis, 327, 18 h
Staphylococcus aureus [2] = assay: Antimicrobial activity against methicillin-sensitive Staphylococcus aureus 375 after 18 hrs by twofold serial microbroth dilution method; format: functional; details: Staphylococcus aureus, 375, 18 h
Escherichia coli [3] = assay: Antimicrobial activity against Escherichia coli 442 after 18 hrs by agar diffusion method; format: functional, organism-based
Enterococcus faecium = assay: Antimicrobial activity against vancomycin-resistant Enterococcus faecium 379 after 18 hrs by twofold serial microbroth dilution method; format: functional; details: Enterococcus faecium, 379, 18 h
Staphylococcus aureus [4] = assay: Antimicrobial activity against methicillin-resistant Staphylococcus aureus 310 after 18 hrs by twofold serial microbroth dilution method; format: functional; details: Staphylococcus aureus, 310, 18 h
Escherichia coli [5] = assay: Antimicrobial activity against Escherichia coli 442 after 18 hrs by twofold serial microbroth dilution method; format: functional; details: Escherichia coli, 442, 18 h

| Structure (SMILES) | inhibition zone (IZ) (Candida albicans) | MIC (Escherichia coli [1]) [µg/mL] | MIC (Bacillus subtilis) [µg/mL] | MIC (Staphylococcus aureus [2]) [µg/mL] | inhibition zone (IZ) (Escherichia coli [3]) | MIC (Enterococcus faecium) [µg/mL] | MIC (Staphylococcus aureus [4]) [µg/mL] | MIC (Escherichia coli [5]) [µg/mL] | MIC (Candida albicans; Candida albicans, 54, 18 h) [µg/mL] |
| --- | --- | --- | --- | --- | --- | --- | --- | --- | --- |
| C[C@H]1[C@H](C)CC[C@]2(C)CC[C@]3(C(=O)O)C(=CC[C@@H]4[C@@]5(C)[C@H](O)C[C@H](O)C(C)(C)[C@@H]5CC[C@]43C)[C@H]12 | inactive | 16 (≈ 33.8 µM) | 2 (≈ 4.23 µM) | 4 (≈ 8.46 µM) | inactive | 4 (≈ 8.46 µM) | 4 (≈ 8.46 µM) | – | – |
| CO[C@H]1OC(=O)[C@H](C)[C@@H]2[C@@H]1[C@@H](CO)C[C@@H]2O [CAIOPHORAENIN] | inactive | > 128 | > 128 | > 128 | inactive | > 128 | > 128 | > 128 | – |
| C[C@@H]1[C@@H]2COC(=O)C[C@H]2C[C@@H]1O [ISOBOONEIN] | inactive | > 128 | > 128 | > 128 | inactive | > 128 | > 128 | > 128 | – |
| CC1(C)S[C@@H]2[C@H](NC(=O)Cc3ccccc3)C(=O)N2[C@H]1C(=O)O [PENICILLIN G] | – | 4 (≈ 12 µM) | 32 (≈ 95.7 µM) | 0.06 (≈ 0.179 µM) | – | 32 (≈ 95.7 µM) | 128 (≈ 383 µM) | – | > 128 |
